These results are taken from article PMC7830897 (Viruses, 2021).

Several values for one entry are separate records, joined by “and”; a condition that tells them apart may be missing. Equal entries are not always repeated. Entries after “also recorded” stand apart in the source; their conditions may differ. Where two headings read alike, the source gives them in different places. Some results are limits rather than exact numbers.

In one data set the test system is human cardiomyocytes. In words: Human cardiomyocyte function (video-based contractility analysis). In kind it is cell-based. Conditions: 50 µM.
The subject of data set [1] is HBV. Put plainly: Antiviral efficacy in nude mice bearing HBV transfected AD38 xenografts. Conditions: for difference in T/V ratios (HBV titers) versus no-drug / placebo control group: day 45. In kind it is in vivo.
The conditions of data set [2]: cynomolgus monkey plasma (1 donor), 10 µM.
The conditions of data set [3]: 2% FBS (used to measure potency in vitro), 10 µM.
The conditions of data set [4]: Centrifree ultrafiltration device.
The subject of data set [5] is HBV. The arrangement: method as in earlier work. Conditions: 2% FBS, cited from earlier work.
On the set-up of data set [6]: method as in earlier work. The settings on record: CD-1 mice, cited from earlier work.
For data set [7] the following is noted: humanized mice, 60 mg/kg per day PO for 10 weeks; cited from earlier work.
Data set [8] can be described thus: Single-dose plasma pharmacokinetics in male cynomolgus monkeys. The settings on record: for AUCtotal: mean n = 3, extrapolated; for t1/2: mean n = 3, terminal.
For data set [9] the following is noted: human, 10 µM.
For data set [10] the following is noted: cited from earlier work.
Setting [11] is: eight of the ten mice, GLP-26 55 mg/kg 3 times per week via feeding tube, to day 45.
[12] abbreviates: 1 mg/kg IV infusion, mean n = 3.

`COc1nc(N)nc2c1ncn2[C@@H]1O[C@H](COP(=O)(N[C@@H](C)C(=O)OCC(C)(C)C)Oc2cccc3ccccc23)[C@@H](O)[C@@]1(C)O` (stereo partly drawn) [BMS-986094]: in the data set with human cardiomyocytes, the “resumption of cardiomyocyte beating” value is recorded as “resumed after 8 h with an unstable rhythm” and the “time until cardiomyocyte beating stopped” value was not above 2 h.
On to `C=C1[C@H](CO)[C@@H](O)C[C@@H]1n1cnc2c(=O)[nH]c(N)nc21` [ETV, entecavir, reference compound], for which, in the data set with HBV [1], the “difference in T/V ratios (HBV titers) versus no-drug / placebo control group” value amounted to 3 log10.
As to `C#CCNC(=O)C(=O)c1c(C)c(C(=O)Nc2ccc(F)c(F)c2)n(C)c1C` [GLP-26], the “difference in T/V ratios (HBV titers) versus no-drug / placebo control group” value in the data set with HBV [1] is reported as 2.5 log10. In addition, in the data set on HBV [1] (setting [11]), the “mean rebound in T/V” value stood at 13.8 fold and the “mean rebound in T/V (log10)” value was 1.14 log10. In addition, in [2], the “percent bound in plasma” value turned out to be 86.7%. Moreover, the “percent bound in 2% FBS” value in data set [3] was found to be 17.9%. Besides, the non-specific adsorption entry in data set [4] was “approximately 2.6%”. Besides, in the data set on HBV [5] (converted from nM), the “in vitro EC50 versus HBV” value was ~ 1.1 ng/mL and the “in vitro EC90 versus HBV” value is ~ 11 ng/mL. For the same compound, the EC50 in the data set with HBV [5] (read-out: in vitro EC50 versus HBV) is 3 nM. Further, the EC90 with HBV [5] (read-out: in vitro EC90 versus HBV) is 30 nM. Moreover, the “terminal t1/2” value in [6] (IV 15 mg/kg) is on record as 1.6 h. In [6] (PO 30 mg/kg, IV 15 mg/kg), the PO bioavailability is 61%. Besides, the “terminal t1/2” value in data set [6] (PO 30 mg/kg) is more than 6 h. The tolerability result in data set [7] is recorded as “safely administered”. In [8] (setting [12]), the AUMC came out at 1058 ng·mL^−1·h^2, the CL was determined as 1.106 L·h/kg, the Cmax came to 2513 ng/mL and the MRT amounted to 1.2 h. Besides, in data set [8] (setting [12]), the Tmax was found to be 0.40 h and the Vss was found to be 1.065 Lkg^−1. In [8] (1 mg/kg IV infusion), the AUCtotal was 986.6 ± 316.5 ng·h/mL and 986.6 ng·h/mL; the t1/2 is 0.77 h. In addition, in data set [8] (5 mg/kg PO), the “Cmax relative to in vitro EC50 versus HBV” value was ~ 30 times; the AUCtotal is 1660 ng·h/mL and 1660 ± 530 ng·h/mL; the t1/2 is 2.4 h and 2.44 h. Also, in [8] (5 mg/kg PO, mean n = 3), the AUMC came out at 7435 ng·mL^−1·h^2, the Cmax is 380.7 ng/mL, the MRT is reported as 4.19 h and the Tmax was determined as 0.67 h. Moreover, the “signs of toxicity in monkeys” value in [8] (single IV (1 mg/kg) or PO (5 mg/kg) doses) is “appeared healthy prior to dosing and throughout the duration of the study; also recorded: No signs of toxicity were observed”.
As to `Nc1nc(=O)n([C@@H]2CS[C@H](CO)O2)cc1F` [emtricitabine], the “percent bound in plasma” value in [9] is on record as 0.8%. For the same compound, the “percent bound (reported)” value in data set [10] is reported as less than 4%.
For `Cc1cccc(C)c1OCC(=O)N[C@@H](Cc1ccccc1)[C@@H](O)C[C@H](Cc1ccccc1)NC(=O)[C@H](C(C)C)N1CCCNC1=O` [lopinavir], in data set [9], the “percent bound in plasma” value was found to be 97.9%.
